In the NIST ThermoML archive (doi:10.1021/acs.jced.5b00198):
Values joined by “and” are separate entries in the source; they are usually repeats but may differ in a detail not shown here. Identical values can stand only once. ± gives the expanded uncertainty stated by the source.

Assay: mn = molality of the nth substance listed, in mol/kg
Conditions: 101 kPa, Liquid; for viscosity: Capillary tube (Ostwald / Ubbelohde) method; for speed of sound: Frequency=3 MHz, Sing-around technique in a fixed-path interferometer; for mass density: Vibrating tube method

Question: Which viscosity (288.15 K, m1 = 0.01) does the source give for `CCCC[N+](CCCC)(CCCC)CCCC.[I-]` [tetrabutylammonium iodide] + O here?
Answer: 1.173 ± 0.015 mPa·s and 1.171 ± 0.015 mPa·s

Question: What about the viscosity (288.15 K, m1 = 0.03) of the same compound?
Answer: 1.197 ± 0.015 mPa·s and 1.201 ± 0.015 mPa·s and 1.205 ± 0.015 mPa·s

Question: And the speed of sound (288.15 K, m1 = 0.01)?
Answer: 1468.9 ± 1.2 m/s

Question: And the speed of sound (288.15 K, m1 = 0.03)?
Answer: 1473.6 ± 1.2 m/s

Question: What about the mass density (288.15 K, m1 = 0.01) of the same compound?
Answer: 1001.07 ± 4 kg/m3

Question: And the mass density (288.15 K, m1 = 0.03)?
Answer: 1002.22 ± 4 kg/m3

Question: And the viscosity (293.15 K, m1 = 0.01)?
Answer: 1.006 ± 0.013 mPa·s and 1.007 ± 0.013 mPa·s

Question: And the viscosity (293.15 K, m1 = 0.03)?
Answer: 1.033 ± 0.014 mPa·s and 1.025 ± 0.013 mPa·s and 1.036 ± 0.014 mPa·s

Question: And the speed of sound (293.15 K, m1 = 0.01)?
Answer: 1484.9 ± 1.2 m/s

Question: And the speed of sound (293.15 K, m1 = 0.03)?
Answer: 1489.1 ± 1.2 m/s

Question: And the mass density (293.15 K, m1 = 0.01)?
Answer: 1000.16 ± 4 kg/m3

Question: What about the mass density (293.15 K, m1 = 0.03) of the same compound?
Answer: 1001.29 ± 4 kg/m3

Question: What about the viscosity (298.15 K, m1 = 0.01) of the same compound?
Answer: 0.861 ± 0.011 mPa·s and 0.862 ± 0.011 mPa·s

Question: What about the viscosity (298.15 K, m1 = 0.03) of the same compound?
Answer: 0.883 ± 0.011 mPa·s and 0.882 ± 0.011 mPa·s and 0.884 ± 0.011 mPa·s

Question: And the speed of sound (298.15 K, m1 = 0.01)?
Answer: 1498.9 ± 1.2 m/s

Question: What about the speed of sound (298.15 K, m1 = 0.03) of the same compound?
Answer: 1502.8 ± 1.2 m/s

Question: And the mass density (298.15 K, m1 = 0.01)?
Answer: 998.972 ± 4 kg/m3

Question: And the mass density (298.15 K, m1 = 0.03)?
Answer: 1000.09 ± 4 kg/m3

Question: And the viscosity (303.15 K, m1 = 0.01)?
Answer: 0.818 ± 0.01 mPa·s and 0.817 ± 0.01 mPa·s

Question: What about the viscosity (303.15 K, m1 = 0.03) of the same compound?
Answer: 0.83 ± 0.01 mPa·s and 0.828 ± 0.01 mPa·s and 0.831 ± 0.01 mPa·s

Question: And the speed of sound (303.15 K, m1 = 0.01)?
Answer: 1511.1 ± 1.2 m/s

Question: What about the speed of sound (303.15 K, m1 = 0.03) of the same compound?
Answer: 1514.5 ± 1.2 m/s

Question: And the mass density (303.15 K, m1 = 0.01)?
Answer: 997.53 ± 4 kg/m3

Question: And the mass density (303.15 K, m1 = 0.03)?
Answer: 998.614 ± 4 kg/m3

Question: And the viscosity (308.15 K, m1 = 0.01)?
Answer: 0.731 ± 0.009 mPa·s and 0.732 ± 0.009 mPa·s

Question: And the viscosity (308.15 K, m1 = 0.03)?
Answer: 0.739 ± 0.009 mPa·s and 0.744 ± 0.009 mPa·s

Question: What about the speed of sound (308.15 K, m1 = 0.01) of the same compound?
Answer: 1521.2 ± 1.2 m/s

Question: What about the speed of sound (308.15 K, m1 = 0.03) of the same compound?
Answer: 1524.4 ± 1.2 m/s

Question: What about the mass density (308.15 K, m1 = 0.01) of the same compound?
Answer: 995.952 ± 4 kg/m3

Question: And the mass density (308.15 K, m1 = 0.03)?
Answer: 997.021 ± 4 kg/m3
